Key:
[1] = test system: full-length TRPM6 L1718A+L1721A; test: Peptide pull-down, full-length TRPM6 L1718A+L1721A; type: binding, human; conditions: full-length L1718A+L1721A TRPM6, HEK-293 lysate, 3 μg peptide, 4°C; anti-FLAG immunoblot
Method: (§1) The peptides biotin-C6-[…]-TIPFTPVQLFAGEEITV (wild-type) and biotin-C6-LKSPQE-[…] (mutant) were purchased from GL Biochem. For a peptide pull-down, 1–5 mg of lysate was incubated with 3 μg of the respective peptide for 10 min at 4°C under gentle agitation, followed by 5 min of incubation with 10–20 μl of streptavidin beads at 4°C. The immunoprecipitates were washed three times with lysis buffer containing 0.15 M NaCl and then twice with buffer A. Proteins were eluted by resuspending washed immunoprecipitates in 30 μl of SDS sample buffer.
Figure 2 Identification of dimerization motif residues in TRPM6 (A) Structural model of TRPM7 α-kinase depicting the N-terminal non-catalytic α-helix of one monomer that interacts with the kinase segment of the other monomer. (B) Fluorescence polarization analysis of wild-type (WT) and mutant (Mut) dimerization motif peptides with E. coli-purified GST-tagged TRPM6-(1730–end). […] The samples were analysed by immunoblotting with anti-GST antibody (top panel). […] Proteins were separated by SDS/PAGE, stained with Coomassie Blue (top and middle gels) and MBP phosphorylation was detected by autoradiography (bottom gel). […] Proteins were separated by SDS/PAGE, stained with Coomassie Blue (top and middle gels) and MBP phosphorylation was detected by autoradiography (bottom gel). […] The pull-down samples were analysed by immunoblotting with anti-FLAG antibody (top panel). […]

[2] = molecular target: T1, GST-tagged TRPM6-(1730–end) (Homo sapiens, UniProt Q9BX84); test: Peptide pull-down, TRPM6-(1730–end); type: binding; conditions: HEK-293 lysate 1–5 mg, 3 μg biotinylated peptide, 10 min at 4°C, streptavidin beads; anti-GST immunoblot
T1 construct: E. coli-purified GST-tagged TRPM6-(1730–end); made in house; host or cells: E. coli BL21
T1 sequence (Q9BX84 1730-2022 limits assumed): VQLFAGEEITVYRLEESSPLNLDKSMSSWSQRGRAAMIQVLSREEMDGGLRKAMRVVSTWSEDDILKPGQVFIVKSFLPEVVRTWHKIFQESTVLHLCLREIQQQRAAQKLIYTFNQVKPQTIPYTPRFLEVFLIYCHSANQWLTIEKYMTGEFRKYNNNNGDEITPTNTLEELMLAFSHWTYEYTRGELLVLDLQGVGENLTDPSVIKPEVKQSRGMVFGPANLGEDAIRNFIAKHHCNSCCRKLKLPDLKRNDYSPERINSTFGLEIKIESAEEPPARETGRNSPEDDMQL
Method: as §1
(Figure 2A). We next utilized fluorescence polarization technology, a sensitive method to evaluate interactions between proteins and peptides. Using this methodology, we first evaluated how polarization of a fluorescently labelled peptide encompassing the dimerization motif was affected by titration of TRPM6-(1730–end) (which lacks the dimerization motif). […]
Figure 2 Identification of dimerization motif residues in TRPM6 (A) Structural model of TRPM7 α-kinase depicting the N-terminal non-catalytic α-helix of one monomer that interacts with the kinase segment of the other monomer. (B) Fluorescence polarization analysis of wild-type (WT) and mutant (Mut) dimerization motif peptides with E. coli-purified GST-tagged TRPM6-(1730–end). […] The samples were analysed by immunoblotting with anti-GST antibody (top panel). […]

## biotin-C6-LKSPQEPHHHYSAIERNNLMRLSQ-TIPFTPVQLFAGEEITV [biotinylated dimerization motif peptide, biotin-C6 wild-type dimerization motif peptide; conjugated to streptavidin–Sepharose]
[1]
  interaction with biotinylated dimerization motif peptide (pull-down): rendered capable of interacting
[2]
  affinity purification of TRPM6-(1730–end) (pull-down): could efficiently purify TRPM6-(1730–end)

— publication PMC4019984, “Kinase and channel activity of TRPM6 are co-ordinated by a dimerization motif and pocket interaction” (Biochemical Journal, 2014)
